Assay results published in BindingDB's records for doi:10.1016/j.ejmech.2021.113695 (Griffith University, 2021).

Assay: Inhibition of NS2B-NS3 intramolecular cleavage in Dengue virus 2 infected in LLC-MK2 cells assessed as inhibition of viral replication measured afer 48 hrs by ELISA

`O=C1c2c(O)ccc([N+](=O)[O-])c2C(=O)c2c([N+](=O)[O-])ccc(O)c21` gave an EC50 of 4.2 µM.
